# Patent US20130158024A1, “TRICYCLIC NECROSTATIN COMPOUNDS” (priority 2005, published 2013)
# “Also recorded” adds a separate entry of the source. Where a SMILES comes first, the peptide text is derived from it. The star is where a group is joined. Cbz = O=C(OCc1ccccc1)*; CH2F = FC*
# How the values were obtained:
# U-937 cells = experiment: Necrosis of low density U-937 cells induced by zVAD-fmk and DMSO, ATP levels; type: cell-based, human; settings: U-937 1×10^5 cells/ml, 72 hours
# Description: Methods for the identification of chemical compounds that decrease cell necrosis induced, for example, by zVAD-fmk/DMSO at a low cell density (e.g., 1×10^5 cells/ml) are achieved essentially as described above, except, the inducer of necrosis is zVAD-fmk/DMSO, rather than zVAD-fmk/TNFα.
# Exposure of low density U-937 cells (1×10^5 cells/ml) to zVAD-fmk (100 μM) and DMSO (0.5%) for 72 hours results in cell death by necrosis. The compounds identified to decrease cell necrosis triggered by zVAD-fmk and TNFα, compounds 115807, 115681, 210227, and 215686 from the ChemBridge chemical library, were also evaluated for their ability to decrease cell necrosis induced by zVAD-fmk and DMSO. The cells (1×10^5 cells/ml) were first exposed to zVAD-fmk, and then thirty minutes later to the above-identified small molecules that decrease necrosis. After an additional 30 minutes, the cells were exposed to DMSO. 72 hours after exposure to the compounds, cellular ATP levels were measured, as described above.
# U937 cells = experiment: Necrosis of U937 cells induced by TNFα and zVAD.fmk (primary and secondary screen), ATP assay; type: cell-based, human; settings: U937, 72 hours
# Description: We plated U937 cells in 384-well plates at 5,000-10,000 cells per well in 40-μl phenol red-free RPMI 1640 medium containing 100 μM zVAD.fmk and 40 ng ml^−1 human TNFα using a Multidrop dispenser (Thermo Electron). We added 100 nl of the DiverSetE (5 mg ml^−1 in DMSO, Chembridge) using a Seiko-based custom-built pin transfer robot (Institute of Chemistry and Cell Biology, Harvard Medical School). After 72 hours, we assessed cell viability using a luminescence-based ATP assay (ATPLite-M, PerkinElmer). We also dispensed cells not treated with TNFα in each plate as a positive control. We purchased Nec-1 and other preliminary positive hits from Chembridge for individual retesting.
# Using a known paradigm of death receptor mediated caspase-independent cell death in human U937 cells, we established a high-throughput screen in 384 well format for small molecule inhibitors of caspase-independent cell death (CICD). In this system, U937 cells were induced to undergo CICD in the presence of TNFα and zVAD.fmk, and the rate of cell death was determined by an ATP-Lite-M assay, a commercial luminescence-based assay measuring cellular ATP levels (Packard). U937 cells were chosen because these cells can be induced to undergo CICD very efficiently upon TNFα/zVAD treatment in the absence of additional, stress-inducing sensitizing stimuli, such as CHX, making this system perfectly suited for reliable identification of CICD inhibitors. Furthermore, rapid suspension growth kinetics of U937 cells results in the availability of large quantities of cells, which translates into robust signals ideal for high throughput screening. ATP-Lite-M assay was chosen because among all the different assay systems tested, it gives the most consistent and robust signal, which is also critical for high throughput screening. Exposure of U937 cells to TNFα alone led to partial cell death, whereas co-treatment with TNFα and caspase inhibitor zVAD.fmk produced significant increase in the amount of cell death and ATP loss consistent with the published observations. In addition, in the presence of zVAD.fmk, the morphology of cell loss changed from apoptosis with cell shrinkage, nuclear fragmentation, membrane blebbing to necrosis, characterized by cell swelling, increase in cytosolic density, and early loss of plasma membrane integrity. Other cell death assays, such as an MTT assay (mitochondrial metabolism) and Sytox assay (permeability of the plasma membrane), were used as alternative means to validate the screen, and consistently produced results similar to those obtained using ATP-Lite-M assay, which confirmed that the ATP-Lite-M assay can be used to accurately measure the extent of CICD.
# In a primary screen, U-937 cells (5×10^5 or 7.5×10^5 cells/ml) were first exposed to zVAD-fmk (100 μM). Thirty minutes later the same cells were exposed to a chemical compound from the library (5 mg/ml, dissolved in 0.1-0.5 μl of DMSO, giving a final DMSO concentration of 0.3% to 1.5%). After an additional thirty minutes, TNFα (40 ng/ml) was added to the cell culture medium. The cells were then incubated at 37 C for 72 hours, and were then assayed for cellular ATP levels. […] Compounds which maintained cellular ATP levels were compounds which blocked necrosis triggered by zVAD-fmk and TNFα.
# In a secondary screen, the compounds identified from the first screen, above, to decrease necrosis induced by zVAD-fmk and TNFα were assayed for their potency. Serial dilution of each chemical compound was performed and the compounds were administered to U-937 cells, as per the primary screen. The concentrations of each compound were 70 μM, 23 μM, 8 μM, and 2.5 μM. The level of necrosis occurring in response to zVAD-fmk, TNFα, and the various concentrations of chemical compounds was assayed as described above for the primary screen.
# Jurkat T cells = experiment: Necrosis (CICD) of Jurkat T cells induced by Fas ligand, cycloheximide and zVAD, ATP assay; type: cell-based, human; settings: FasL/CHX/zVAD
# Description: Jurkat cells were treated with 5 ng/ml of FasL without (A) or with cyclohexamide (CHX) (B) to induce apoptosis, or 5 ng/ml FasL, 1 μg/ml of CHX and 100 μM of zVAD.fmk to induce CICD (B). […] Cell viability was determined after 24 hours of incubation with indicated reagents using CellTiter-Glo ATP assay. The values represent viability relative to the control Jurkat cells without the treatment of FasL, which was set as 100% viability.
# FIG. 34A is a graph showing the results of treating Jurkat T cells with Fas ligand (5 ng/ml), cyclohexamide (1 μg/ml) and zVAD (100 μM) in the presence of the indicated amounts of anti-necrotic compounds (4) and (5). Viability was determined 36 hours later using an ATP assay. The viability values are relative to the samples lacking Fas ligand, which were used as 100% viability controls. FIG. 34B is a graph as in FIG. 34A, in which the anti-necrotic compounds are (19) and (20).
# Compounds were also tested in another necrosis assay utilizing human Jurkat T cells, Fas ligand to induce cell death, and zVAD to inhibit the apoptosis pathway. After 36 hours, cell viability was measure by the commercial CellTiter ATP cell viability assay (Promega).
# L929 cells = experiment: TNFα-induced CICD of L929 cells, ATP assay; type: cell-based, mouse; settings: no caspase inhibitor
# Description: Cell viability was determined using ATP-Lite-M ATP assay (Packard). The values represent viability relative to the control lacking TNFα, which was set as 100% viability.
# Cell viability in this and subsequent panels was determined by ATP-based viability assay. Numbers represent percentages of the live cells normalized to those in the untreated control wells. Throughout, error bars represent standard deviations. […] Numbers represent viability normalized to that of the corresponding compound-treated cells in the absence of FasL. […] Numbers represent viability normalized to that of the corresponding compound-treated cells in the absence of dimerizer. […] Cells were treated with TNFα (E, F, H), zVAD.fmk (E, F), or CHX (F) for 16 (F) or 24 (E, H) hours. Numbers represent viability normalized to that of the compound-treated cells in the absence of TNFα.
# BALB/c 3T3 cells = experiment: CICD of BALB/c 3T3 cells induced by TNFα/zVAD.fmk; type: cell-based, mouse
# [1] = tested on: FADD deficient Jurkat cells; settings: compound in the absence of TNFα
# [2] = tested on: FADD-deficient Jurkat T cells treated with TNF-α; experiment: Inhibition of necroptosis (CICD) in FADD-deficient Jurkat T cells treated with TNF-α, ATP-based viability; type: cell-based, human; settings: for antinecroptotic (anti-CICD) activity, in words: FADD-deficient Jurkat cells, TNFα
# [3] = tested on: Primary mouse CD4+ and CD8+ T cells; experiment: Activation-induced cell death (AICD) of primary CD4+ and CD8+ T cells; type: cell-based; settings: re-activated CD4+ cells
# Description: Cell viability was assessed using Sytox Green (Molecular Probes) (CD8) or propidium iodide exclusion (CD4) assays in FIG. 17A or ATP assay in FIG. 17B. Numbers represent the percentages of live cells normalized to the corresponding compound treated controls lacking αCD3.
# primary cortical neurons = experiment: Oxygen-glucose deprivation (OGD) induced death of primary cortical neurons, MAP2 cytoblot; type: cell-based; settings: OGD 90 minutes, 24 hours recovery; 30 μM
# Description: Cells were allowed to recover in the presence of the compounds (except for the CNQX/MK801) for 24 hours, and specific neuronal viability was determined using MAP2 cytoblot. Values represent the percentages of live cells normalized to the compound treated cells, which were maintained in glucose-containing, non-deoxygenated media. **—P<0.02. […] Cells were allowed to recover in the presence of the compounds for 24 hours, and specific neuronal viability was determined using MAP2 cytoblot. Values represent the percentages of live cells normalized to the compound treated cells, which were maintained in glucose-containing, non-deoxygenated media. **—P<0.04.
# CD8+ cells = experiment: Activation and proliferation of CD8+ cytotoxic T lymphocytes (CTL) suppressed by zVAD.fmk; type: cell-based, mouse; settings: 100 μM zVAD.fmk, 30 μM compound
# Description: Numbers of cells were determined using FACS analyses. Cell numbers are normalized to the number of cells in unstimulated control, which was set as 100%. […] Cells were stained with αCD8^+-FITC antibody (Pharmingen) and CD8^+ cell numbers were determined by FACS. Cell numbers are normalized to the number of cells in unstimulated control, which was set as 100%. Percentages of dead cells (line) was determined by co-staining cells with propidium iodide.
# Values represent fold increase over unstimulated control.
# Cells were stained with αCD8^+-FITC antibody (Pharmingen), and CD8^+ cell numbers were determined by FACS. Cell numbers are normalized to the number of cells in unstimulated control, which was set as 100%. Percentages of dead cells (line) were determined by co-staining cells with propidium iodide.
# RIP1 = target: T1, RIP1 (Homo sapiens, UniProt Q13546); experiment: In vitro kinase assay: autophosphorylation of immunoprecipitated RIP1; type: biochemical; settings: radioactive ATP, 30 min at 30° C., autoradiography
# T1 construct: RIP has been immunoprecipitated (IP) from lysates of WT and RIP-deficient Jurkat cells using agarose-conjugated anti-RIP antibody; endogenous in cells; host or cells: Jurkat (wild type)
# T1 sequence (Q13546 whole entry): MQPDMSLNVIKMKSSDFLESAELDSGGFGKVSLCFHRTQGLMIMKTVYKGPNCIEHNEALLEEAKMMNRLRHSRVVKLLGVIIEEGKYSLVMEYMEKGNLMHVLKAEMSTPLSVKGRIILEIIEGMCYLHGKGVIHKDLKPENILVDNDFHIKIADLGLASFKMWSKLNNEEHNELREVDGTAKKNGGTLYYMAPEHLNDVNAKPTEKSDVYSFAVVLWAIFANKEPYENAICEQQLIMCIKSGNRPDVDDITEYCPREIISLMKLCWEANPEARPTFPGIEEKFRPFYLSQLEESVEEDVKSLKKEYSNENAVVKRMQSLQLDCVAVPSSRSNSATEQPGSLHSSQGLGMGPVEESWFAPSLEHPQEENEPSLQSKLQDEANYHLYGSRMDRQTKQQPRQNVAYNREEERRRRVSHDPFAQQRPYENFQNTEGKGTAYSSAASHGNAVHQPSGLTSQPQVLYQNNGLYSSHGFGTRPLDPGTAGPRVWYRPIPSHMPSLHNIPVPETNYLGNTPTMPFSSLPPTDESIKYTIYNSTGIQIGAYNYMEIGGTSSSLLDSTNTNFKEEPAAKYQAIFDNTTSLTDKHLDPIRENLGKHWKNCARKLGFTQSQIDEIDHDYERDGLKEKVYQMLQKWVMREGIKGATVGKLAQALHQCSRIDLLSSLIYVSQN
smiles,measurement,setting,value
Cc1cc(O)c(C(=O)/C=C/c2ccc(O)c([N+](=O)[O-])c2)c(=O)o1 [Compound 115681],"decrease of necrosis induced by zVAD-fmk/DMSO, in words",U-937 cells,also decreased necrosis induced by zVAD-fmk/DMSO
same,"inhibition of necrosis induced by TNFα/zVAD.fmk, in words",U937 cells,identified to decrease necrosis in response to exposure of the cell to zVAD-fmk and TNFα
COc1ccc(/C=C/C(=O)/C=C/c2ccc(OC)c(OC)c2)cc1OC [Compound 215686],"decrease of necrosis induced by zVAD-fmk/DMSO, in words",U-937 cells,also decreased necrosis induced by zVAD-fmk/DMSO
same,"inhibition of necrosis induced by TNFα/zVAD.fmk, in words",U937 cells,identified to decrease necrosis in response to exposure of the cell to zVAD-fmk and TNFα
"CCCNC(=O)[C@H]1O[C@@H]1C(=O)N[C@H](C(=O)N1CCC[C@H]1C(=O)OC)[C@@H](C)CC [Ca-074-Me, reference compound]","inhibition of CICD/necrosis of Jurkat cells, in words",Jurkat T cells,inhibits CICD in Jurkat and 3T3 cells
same,"protection of L929 cells from TNFα-induced CICD, in words",L929 cells,neither these compounds nor geldanamycin work in L929 cells
same,"inhibition of CICD in 3T3 cells, in words",BALB/c 3T3 cells,inhibits CICD in Jurkat and 3T3 cells
COc1ccc2c(c1)C1=NN(C(C)=O)C(c3ccc(F)cc3)C1CC2 (stereo not shown) [Nec-3],"decrease of necrosis induced by zVAD-fmk/DMSO, in words",U-937 cells,also decreased necrosis induced by zVAD-fmk/DMSO
same,LD50,[1],143 µM
same,EC50,"[2]; Homo sapiens, Jurkat, concentration required to rescue 50% of cell death, TNFα for 36 hours, ATP assay, read-out: EC50",0.97 µM
same,"inhibition of necrosis induced by TNFα/zVAD.fmk, in words",U937 cells; listed as 140,identified as an inhibitor of necrosis
same,"inhibition of necrosis induced by TNFα/zVAD.fmk, in words",U937 cells; listed as 210227,identified to decrease necrosis in response to exposure of the cell to zVAD-fmk and TNFα
"COC(=O)C[C@H](NC(=O)[C@H](C)NC(=O)[C@@H](NC(=O)OCc1ccccc1)C(C)C)C(=O)CF [zVAD.fmk, N-benzyloxycarbonyl-Val-Ala-Asp-(OMe) fluoromethyl ketone, reference compound] (Cbz-Val-Ala-Asp(OMe)-CH2F)","effect on AICD, compound alone, in words",[3],only partially protective
same,"protection from OGD-induced neuronal death, in words",primary cortical neurons,did not detect any protection by zVAD.fmk
CN1C(=O)C(Cc2c[nH]c3ccccc23)NC1=S (stereo not shown) [Compound 115807],"decrease of necrosis induced by zVAD-fmk/DMSO, in words",U-937 cells,also decreased necrosis induced by zVAD-fmk/DMSO
same,"inhibition of necrosis induced by TNFα/zVAD.fmk, in words",U937 cells,identified to decrease necrosis in response to exposure of the cell to zVAD-fmk and TNFα
"Cn1cnc(N)c2ncnc1-2 [Compound 3MA, 3-methyladenine, reference compound]","antinecroptotic (anti-CICD) activity, in words",[2],necroptosis proceeded normally in the presence of 3-methyladenine (3MA)
same,"inhibition of CICD in 3T3 cells, in words",BALB/c 3T3 cells,necroptosis proceeded normally in the presence of 3-methyladenine (3MA)
O=C1NC(=S)NC1Cc1c[nH]c2ccccc12 (stereo not shown) [Nec-1i],"restoration of CTL activation/proliferation suppressed by zVAD.fmk, in words",CD8+ cells,does not affect T cell proliferation; also recorded: failed to restore T cell proliferation
same,"antinecroptotic (anti-CICD) activity, in words",[2],does not inhibit CICD in vitro; also recorded: completely abolished antinecroptotic activity
same,"protection from OGD-induced neuronal death, in words",primary cortical neurons,failed to rescue neuronal cell death
same,"inhibition of RIP1 autophosphorylation, in words",RIP1,showed significantly reduced activity in inhibiting RIP1 autophosphorylation
